# Test results: patent publication US4061645A, “2-Trichloromethyl-5-methylsulfinyl-1,3,4-thiadiazole” (Schering Aktiengesellschaft, priority 1972, dated 1977)
# Experiments:
# Helminthosporium sativum = experiment: Agar test (Example 7), Helminthosporium; type: cell-based; conditions: 10 ppm; 5 days at 22° C; control 100
# Procedure, shortened: (§1)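 Compound mixed into sterilised 2% malt extract/1.5% agar before solidification at 10 ppm. Plates inoculated with 100 spores of each fungus; colony diameter (mm) measured after five days at 22° C.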
# [1] = test system: Colletotrichum gloeosporioides; experiment: Agar test (Example 7), Colletotrichum; type: cell-based; conditions: 10 ppm; 5 days at 22° C; control 100
# Procedure, shortened: as §1
# Rhizoctonia solani [2] = experiment: Limit concentration of soil-fungicidal effectiveness, Rhizoctonia solani, infested soil seeded with peas (Example 1); type: in vivo; conditions: soil, 480 h, 20 to 23 days, 22°-25° C, read-out: Limit concentration of the fungicidal effectiveness
# Procedure, shortened: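 Compound mixed homogeneously into steamed compost soil inoculated with Rhizoctonia solani mycelium, and 25 marrow pea seeds ("Miracle of Kelvedon") sown per concentration without a waiting period. Grown 20 to 23 days at 22°-25° C. Limit concentration is the lowest giving sound, necrosis-free roots and at least 90% germination relative to steamed soil.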
# Rhizoctonia solani [3] = experiment: Rhizoctonia solani infested compost soil, marrow peas (Example 3); type: in vivo; conditions: for Weight of fresh plant: 3 weeks; for Number of sound peas after 3 wks.: of 25 grains
# Excerpt: Steamed compost soil was inoculated with mycelium of Rhizoctonia solani. After homogeneous mixture of the products with the infested soil, the products were present in the form of 20% powder preparations, the seeding of 25 grains of marrow peas of the variety "Miracle of Kelvedon" per concentration was effected without waiting period in clay dishes holding 1 liter of soil. The table lists the number of germinated sound peas, the weight of the fresh plant, and a root evaluation after a cultivation period of three weeks at 22°-25° C.
# [4] = test system: Fusarium oxysporum f. callistephi; experiment: Fusarium infested compost soil, Callistephus chinesis seedlings (Example 5); type: in vivo; conditions: of 4 seedlings
# Excerpt: Steamed compost soil was inoculated with a spore suspension of Fusarium oxysporum f. callistephi. After homogeneous mixture of the products with the infested soil, the products were present as 20% powder preparations, and after a waiting period of 8 days, there were set out per concentration 4 seedlings of Callistephus chinesis, master aster "Sun Ray" as host plants.
# Damping-off Fungi = experiment: Cotton seed disinfection, normal compost soil (Example 6); type: in vivo; conditions: 100 mg active ingr. per kg of seed; 10% formulation; 15 days
# Experimental: Cotton seeds disinfected with 10% formulations were seeded in normal compost soil (Damping-off Fungi), 25 grains per concentration. After a cultivation time of 15 days at 22°-25° C, the number of germinated sound cotton seedlings and their weight as fresh plants were determined.
# Pythium ultimum [5] = experiment: Pythium ultimum infested compost soil, marrow peas (Example 2); type: in vivo; conditions: for Weight of fresh plant: 3 weeks; for Number of sound peas after 3 wks.: of 25 grains
# Excerpt: Steamed compost soil was inoculated with mycelium of Pythium ultimum.
# Stemphylium ilicis = experiment: Agar test (Example 7), Stemphylium; type: cell-based; conditions: 10 ppm; 5 days at 22° C; control 100
# Procedure, shortened: as §1
# Asperqilus niger = experiment: Agar test (Example 7), Aspergillus; type: cell-based; conditions: 10 ppm; 5 days at 22° C; control 100
# Procedure, shortened: as §1
# Meloidogyne incognita = experiment: Nematocidal action, infested compost soil, cucumber seeds (Example 8); type: in vivo; conditions: 30 days
# Experimental: The products as 20% powder preparations were homogeneously admixed with a compost soil heavily infested by root gal nematodes. Without a waiting period, 20 cucumber seeds per concentration were seeded. After a cultivation time of 30 days at a temperature of 23°-25° C, the nematocidal action was evaluated by counting the root galls formed in the waterbath. The following table states the reduction of attack in percent. In the control, an average of 90 root galls per seedling had formed.
# Pythium ultimum [6] = experiment: Fungistatic and fungicidal action on Pythium ultimum with varying active ingredient percentages (Example 4); type: in vivo
# Excerpt: Comparison of the fungistatic and fungicidal action on Pythium ultimum when using preparations with varyng active ingredient percentages on siliceous clay. Steamed compost soil was inoculated with mycelium of Pythium ultimum. After forming a homogeneous mixture of the products with the infested soil, […], the seeding of 25 grains of marrow peas of the variety "Miracle of Kelvedon" per concentration in clay dishes holding 1 liter of soil followed without a waiting period. In the table is stated the fresh number of germinated sound peas, the weight of the fresh plant, and a root evaluation after a cultivation period of three weeks at 22°-25° C.
# Pyrenochaeta lycopersici = experiment: Control of Pyrenochaeta lycopersici, corky root disease of the tomato, open field (Example 9); type: in vivo; conditions: 10% granulate
# Excerpt: Control of Pyrenochaeta lycopersici, corky root disease of the tomato.
# On a naturally invested open field area, 2-dichloromethyl-5-methylsulfonyl-1,3,4-thiadiazole was scattered as a 10% granulate formulation and hoed in 20 cm deep. […] After a reaction period of three weeks, tomato plants of the variety "Ronald-M" which were 8 weeks old were set out at a distance from each other of 50 × 70 cm. The harvest results indicated in the table are average values of 40 plants per lot and refer to harvested ripe tomatoes.
# Botrytis cinerea = experiment: Agar test (Example 7), Botrytis; type: cell-based; conditions: 10 ppm; 5 days at 22° C; control 100
# Procedure, shortened: as §1
# [7] = 10 mg active ingr. per liter of soil
# [8] = 20 mg active ingr. per liter of soil
# [9] = 30 mg active ingr. per liter of soil
# [10] = 5% formulation, 6 mg active ingr. per liter of soil
# [11] = 5% formulation, 10 mg active ingr. per liter of soil
# [12] = 10% formulation, 6 mg active ingr. per liter of soil
# [13] = 10% formulation, 10 mg active ingr. per liter of soil
# [14] = 20% formulation, 6 mg active ingr. per liter of soil
# [15] = 20% formulation, 10 mg active ingr. per liter of soil
# [16] = 10 g active ingr. per square meter
# [17] = 20 g active ingr. per square meter
structure (smiles),measurement,setting,value
"CS(=O)(=O)c1nnc(C(Cl)Cl)s1 [Compound 17, 2-dichloromethyl-5-methylsulfonyl-1,3,4-thiadiazole]",diameter of the colonies,Helminthosporium sativum,0 mm
same,diameter of the colonies,[1],0 mm
same,minimal effective concentration,Rhizoctonia solani [2],20 µg/mL
same,Weight of fresh plant,Rhizoctonia solani [3]; [7],0 g
same,Number of sound peas after 3 wks.,Rhizoctonia solani [3]; [7],0
same,Weight of fresh plant,Rhizoctonia solani [3]; [8],14 g
same,Number of sound peas after 3 wks.,Rhizoctonia solani [3]; [8],23
same,Weight of fresh plant,Rhizoctonia solani [3]; [9],14 g
same,Number of sound peas after 3 wks.,Rhizoctonia solani [3]; [9],22
same,Number of attacked plants after 3 weeks,[4]; 50 mg active ingredient per liter of soil,0
same,Number of attacked plants after 3 weeks,[4]; 100 mg active ingredient per liter of soil,0
same,Sound plants in %,Damping-off Fungi,100%
same,Weight of fresh plant,Damping-off Fungi,23 g
same,Weight of fresh plant,Pythium ultimum [5]; [7],24 g
same,Number of sound peas after 3 wks.,Pythium ultimum [5]; [7],23
same,Weight of fresh plant,Pythium ultimum [5]; [8],22 g
same,Number of sound peas after 3 wks.,Pythium ultimum [5]; [8],24
same,Weight of fresh plant,Pythium ultimum [5]; [9],26 g
same,Number of sound peas after 3 wks.,Pythium ultimum [5]; [9],24
same,diameter of the colonies,Stemphylium ilicis,0 mm
same,diameter of the colonies,Asperqilus niger,0 mm
same,Nematocidal action in % (reduction of attack),Meloidogyne incognita; 40 mg per liter of soil,90%
same,Nematocidal action in % (reduction of attack),Meloidogyne incognita; 60 mg per liter of soil,94%
same,Number of sound peas after 3 weeks,Pythium ultimum [6]; [10],12
same,Root evaluation (1-4),Pythium ultimum [6]; [10],1
same,Weight of fresh plant,Pythium ultimum [6]; [10],9 g
same,Number of sound peas after 3 weeks,Pythium ultimum [6]; [11],24
same,Root evaluation (1-4),Pythium ultimum [6]; [11],4
same,Weight of fresh plant,Pythium ultimum [6]; [11],20 g
same,Number of sound peas after 3 weeks,Pythium ultimum [6]; [12],24
same,Root evaluation (1-4),Pythium ultimum [6]; [12],1
same,Weight of fresh plant,Pythium ultimum [6]; [12],15 g
same,Number of sound peas after 3 weeks,Pythium ultimum [6]; [13],22
same,Root evaluation (1-4),Pythium ultimum [6]; [13],4
same,Weight of fresh plant,Pythium ultimum [6]; [13],24 g
same,Number of sound peas after 3 weeks,Pythium ultimum [6]; [14],22
same,Root evaluation (1-4),Pythium ultimum [6]; [14],2
same,Weight of fresh plant,Pythium ultimum [6]; [14],17 g
same,Number of sound peas after 3 weeks,Pythium ultimum [6]; [15],24
same,Root evaluation (1-4),Pythium ultimum [6]; [15],4
same,Weight of fresh plant,Pythium ultimum [6]; [15],16 g
same,"Tomatoes per plant, relative to 0 g",Pyrenochaeta lycopersici; [16],159%
same,"Weight of single tomato, relative to 0 g",Pyrenochaeta lycopersici; [16],110%
same,"Yield per plant, relative to 0 g",Pyrenochaeta lycopersici; [16],171%
same,"Tomatoes per plant, relative to 0 g",Pyrenochaeta lycopersici; [17],165%
same,"Weight of single tomato, relative to 0 g",Pyrenochaeta lycopersici; [17],130%
same,"Yield per plant, relative to 0 g",Pyrenochaeta lycopersici; [17],213%
same,diameter of the colonies,Botrytis cinerea,0 mm
